Where two headings read alike, the source gives them in different places.
Experiments:
[1] = test system: M14 (amelanotic melanoma) cells; experiment: antiproliferation assay (72 h, CELLTITER 96), M14; type: cell-based, human; conditions: Homo sapiens
In short: (§1)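 Human M14 melanoma and NCI-H460 lung carcinoma cells in RPMI-1640/10% FBS, seeded at 5×10^2–5×10^4 cells/well and adhered overnight, then exposed to seven compound concentrations for 72 h at 37 °C. Viable cells read by CellTiter 96 AQueous (MTS); IC50 = concentration giving 50% of maximal growth inhibition.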

[2] = test system: NCI-H460 (large cell lung carcinoma) cells; experiment: antiproliferation assay (72 h, CELLTITER 96), NCI-H460; type: cell-based, human; conditions: Homo sapiens, read-out: NCI-H460 IC50
In short: as §1

IC50 ([1]; Table 7) [nM] | IC50 ([2]; NCI-H460, Table 7) [nM] | SMILES | further results
210 | 250 | C/C=C/C[C@H]1C[C@]2([C@@H](C)Cc3ccc(OC)cc3F)OCOC2=CC1=O [Compound 67, (6S,7aR)-6-((E)-but-2-en-1-yl)-7a-((S)-1-(2-fluoro-4-methoxyphenyl)propan-2-yl)-7,7a-dihydrobenzo[d][1,3]dioxol-5(6H)-one] | 
860 | 820 | COc1ccc(C[C@H](C)[C@]23C[C@H](CC=C(F)F)C(=O)C=C2OCO3)c(F)c1 [Compound 68, (6S,7aR)-6-(3,3-difluoroallyl)-7a-((S)-1-(2-fluoro-4-methoxyphenyl)propan-2-yl)-7,7a-dihydrobenzo[d][1,3]dioxol-5(6H)-one] | 
570 | 510 | COc1cc(F)c(C[C@H](C)[C@]23C[C@H](CCCF)C(=O)C=C2OCO3)cc1O [Compound 69, (6S,7aR)-7a-((S)-1-(2-fluoro-5-hydroxy-4-methoxyphenyl)propan-2-yl)-6-(3-fluoropropyl)-7,7a-dihydrobenzo[d][1,3]dioxol-5(6H)-one] | 
7400 | > 4000 | CCC[C@H]1C[C@]2([C@@H](C)Cc3ccc(OC)c(OC)c3)OCOC2=CC1=O [Compound 70, (6S,7aR)-7a-((S)-1-(3,4-dimethoxyphenyl)propan-2-yl)-6-propyl-7,7a-dihydrobenzo[d][1,3]dioxol-5(6H)-one] | 
 |  | C=CC[C@H]1C[C@]2(CCc3ccc(OC)c(OC)c3)OCOC2=CC1=O [Compound 72, (6S,7aS)-6-allyl-7a-(3,4-dimethoxyphenethyl)-7,7a-dihydrobenzo[d][1,3]dioxol-5(6H)-one] | IC50 ([1]; Table 8): 2000 nM; IC50 ([2]; NCI-H460, Table 8): 3200 nM
 |  | C=CC[C@H]1C[C@]2([C@@H](C)Cc3ccc(OC)c(OC(=O)N(C)C)c3)OCOC2=CC1=O [Compound 73, 5-((S)-2-((3aR,5S)-5-allyl-6-oxo-3a,4,5,6-tetrahydrobenzo[d][1,3]dioxol-3a-yl)propyl)-2-methoxyphenyl dimethylcarbamate] | IC50 ([1]; Table 4): > 20000 nM; IC50 ([2]; NCI-H460, Table 4): > 20000 nM
120 | 290 | C/C=C/[C@H]1C[C@]2([C@H](C)Cc3cc(O)c(OC)cc3F)OCOC2=CC1=O [Compound 74, (6R,7aR)-7a-((R)-1-(2-fluoro-5-hydroxy-4-methoxyphenyl)propan-2-yl)-6-((E)-prop-1-en-1-yl)-7,7a-dihydrobenzo[d][1,3]dioxol-5(6H)-one] | 
510 | 860 | C/C=C/[C@H]1C[C@]2([C@@H](C)Cc3cc(O)c(OC)cc3F)OCOC2=CC1=O [Compound 75, (6R,7aR)-7a-((S)-1-(2-fluoro-5-hydroxy-4-methoxyphenyl)propan-2-yl)-6-((E)-prop-1-en-1-yl)-7,7a-dihydrobenzo[d][1,3]dioxol-5 (6H)-one] | 
300 | 450 | COc1cc(F)c(C[C@H](C)[C@]23C[C@H](CCSC)C(=O)C=C2OCO3)cc1O [Compound 76, (6R,7aR)-7a-((S)-1-(2-fluoro-5-hydroxy-4-methoxyphenyl)propan-2-yl)-6-(2-(methylthio)ethyl)-7,7a-dihydrobenzo[d][1,3]dioxol-5(6H)-one] | 
110 | 550 | CC[C@H](C)[C@H]1C[C@]2([C@@H](C)Cc3cc(O)c(OC)cc3F)OCOC2=CC1=O [Compound 77, (6R,7aR)-6-((S)-sec-butyl)-7a-((S)-1-(2-fluoro-5-hydroxy-4-methoxyphenyl)propan-2-yl)-7,7a-dihydrobenzo[d][1,3]dioxol-5(6H)-one] | 
190 | 270 | COCC[C@H]1C[C@]2([C@@H](C)Cc3cc(O)c(OC)cc3F)OCOC2=CC1=O [Compound 78, (6S,7aR)-7a-((S)-1-(2-fluoro-5-hydroxy-4-methoxyphenyl)propan-2-yl)-6-(2-methoxyethyl)-7,7a-dihydrobenzo[d][1,3]dioxol-5(6H)-one] | 
1300 | 2500 | C=C(Cl)C[C@H]1C[C@]2([C@@H](C)Cc3ccc(OC)cc3F)OCOC2=CC1=O [Compound 79, (6R,7aR)-6-(2-chloroallyl)-7a-((S)-1-(2-fluoro-4-methoxyphenyl)propan-2-yl)-7,7a-dihydrobenzo[d][1,3]dioxol-5(6H)-one] | 
